Experimental data as given in the supplement of paper PMC6045584.

What was measured:
Test in all cases: area under dose-response curve of surviving fraction (unscaled, Aref=0) (surviving fraction x log10(nM)); higher = more resistant
Conditions in all cases: exposure time: 5 days; dose range 0.5-1000 nM
[1] = compound: CCn1c(C(=O)N(C2CC2)C2CC2)cc2c3c(ncn3C)c(Nc3cc(C)n(C)n3)nc21
Outline: (§1)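 Three screens per tumour cell line were run in 384-well plates at eight inhibitor concentrations from 0.5 to 1000 nM over five days. Surviving fractions, from CellTiter-Glo luminescence normalised to DMSO-only wells, were fitted with 3-parameter logistic curves in the drc R package. The reported area under the curve is the unscaled activity area. It spans log10 dose, and Aref is 0.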

SOTRASTAURIN/AEB071 = compound: CN1CCN(c2nc(C3=C(c4c[nH]c5ccccc45)C(=O)NC3=O)c3ccccc3n2)CC1 [SOTRASTAURIN/AEB071]
Outline: as §1

SORAFENIB = compound: CNC(=O)c1cc(Oc2ccc(NC(=O)Nc3ccc(Cl)c(C(F)(F)F)c3)cc2)ccn1 [SORAFENIB]
Outline: as §1

FORETINIB = compound: COc1cc2c(Oc3ccc(NC(=O)C4(C(=O)Nc5ccc(F)cc5)CC4)cc3F)ccnc2cc1OCCCN1CCOCC1 [FORETINIB]
Outline: as §1

[2] = compound: COc1cc2ncnc(Nc3ccc(F)c(Cl)c3)c2cc1NC(=O)/C=C/CN1CCCCC1
Outline: as §1

[3] = compound: C[C@@H](Oc1cc(-c2cnn(C3CCNCC3)c2)cnc1N)c1c(Cl)ccc(F)c1Cl
Outline: as §1

ABIRATERONE = compound: C[C@]12CC[C@H](O)CC1=CC[C@@H]1[C@@H]2CC[C@]2(C)C(c3cccnc3)=CC[C@@H]12 [ABIRATERONE]
Outline: as §1

DASATINIB = compound: Cc1nc(Nc2ncc(C(=O)Nc3c(C)cccc3Cl)s2)cc(N2CCN(CCO)CC2)n1 [DASATINIB]
Outline: as §1

TEMOZOLOMIDE = compound: Cn1nnc2c(C(N)=O)ncn2c1=O [TEMOZOLOMIDE]
Outline: as §1

MLN-4924 = compound: NS(=O)(=O)OC[C@@H]1C[C@@H](n2ccc3c(N[C@H]4CCc5ccccc54)ncnc32)C[C@@H]1O [MLN-4924]
Outline: as §1

Test System	area under dose-response curve [1]	area under dose-response curve (SOTRASTAURIN/AEB071)	area under dose-response curve (SORAFENIB)	area under dose-response curve (FORETINIB)	area under dose-response curve [2]	area under dose-response curve [3]	area under dose-response curve (ABIRATERONE)	area under dose-response curve (DASATINIB)	area under dose-response curve (TEMOZOLOMIDE)	area under dose-response curve (MLN-4924)
HT1080 SOFT TISSUE	3.3	3.53	3.4	3.13	3.22	3.25	3.37	2.37	3.41	2.52
JIMT1 BREAST	3.27	3.24	3.34	3.01	2.5	3.01	3.3	1.66	3.4	3.19
KPD BONE	3.28	3.41	3.2	3.08	3.13	2.95	3.4	2.1	3.35	2.61
LM7 BONE	3.31	3.08	3.39	3.1	2.98	2.6	3.33	1.58	3.38	2.09
MCF7 BREAST	2.83	3.11	2.97	2.96	3.16	2.71	3.3	2.56	3.08	2.24
MDAMB231 BREAST	3.25	3.34	3.13	2.91	3.08	2.81	3.29	1.44	3.27	2.4
MDAMB436 BREAST	2.67	2.8	3.22	3.16	3.06	2.84	3.11	2.65	3.32	2.24
MFM223 BREAST	3.58	2.95	3.79	3.08	3.27	2.92	3.88	2.52	4.05	2.82
NY BONE	3.17	3.48	3.41	2.96	3.15	2.97	3.56	2	3.45	2.47
OS25HAL BONE	3.23	3.43	3.2	2.85	3.34	3.14	3.44	2.28	3.52	2.39
OSHN BONE	3.38	3.32	3.51	3.09	3.52	3.17	3.67	2.81	3.58	2.48
SCC36 HEADNECK	3.52	3.02	3.74	3.13	1.81	2.51	3.63	1.53	3.63	2.11
SG27 HEADNECK	3.25	3.57	3.79	3.23	3.28	3.15	3.22	2.16	3.68	2.95
SNU475 LIVER	3.18	3.15	3.6	3.18	2.94	2.77	3.42	1.64	3.4	3.13
SUM149 BREAST	3.48	2.96	3.9	2.82	2.13	2.99	3.16	1.49	3.57	2.38
SYO1 SYNOVIAL	3.06	3.01	3.06	2.43	3.02	2.44	3.32	1.7	3.18	2.1
T47D BREAST	3.36	3.44	3.6	3.43	3.49	3.15	3.62	3.08	3.49	2.34
U2OS BONE	3.44	3.36	3.5	3	3.24	2.88	3.6	2.63	3.39	2.83
VCAP PROSTATE	3.54	3.27	3.73	3.06	3.12	2.88	3.72	3.15	3.44	2.21
